Measured values reported in US20210255184A1, “Biosensor Device and Methods” (The New Zealand Institute for Plant and Food Research …, priority 2018, published 2021).

Molecular target: T1, Or22a/Orco (Drosophila melanogaster, UniProt P81909)
T1 construct: his-tag; made in house; host or cells: baculovirus-infected Sf9 cells
T1 sequence (P81909 1-397): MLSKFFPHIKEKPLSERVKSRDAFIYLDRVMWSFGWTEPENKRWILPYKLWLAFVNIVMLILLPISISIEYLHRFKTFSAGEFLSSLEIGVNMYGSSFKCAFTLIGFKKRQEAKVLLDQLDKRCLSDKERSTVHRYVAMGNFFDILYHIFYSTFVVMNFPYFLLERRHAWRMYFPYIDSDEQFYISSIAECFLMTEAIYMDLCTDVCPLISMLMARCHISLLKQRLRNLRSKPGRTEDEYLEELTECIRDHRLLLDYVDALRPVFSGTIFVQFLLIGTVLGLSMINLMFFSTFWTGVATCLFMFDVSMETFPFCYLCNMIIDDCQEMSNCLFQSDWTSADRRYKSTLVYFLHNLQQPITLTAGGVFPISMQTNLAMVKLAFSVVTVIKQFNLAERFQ
T1 sequence (Q9VNB5 1-486 partner): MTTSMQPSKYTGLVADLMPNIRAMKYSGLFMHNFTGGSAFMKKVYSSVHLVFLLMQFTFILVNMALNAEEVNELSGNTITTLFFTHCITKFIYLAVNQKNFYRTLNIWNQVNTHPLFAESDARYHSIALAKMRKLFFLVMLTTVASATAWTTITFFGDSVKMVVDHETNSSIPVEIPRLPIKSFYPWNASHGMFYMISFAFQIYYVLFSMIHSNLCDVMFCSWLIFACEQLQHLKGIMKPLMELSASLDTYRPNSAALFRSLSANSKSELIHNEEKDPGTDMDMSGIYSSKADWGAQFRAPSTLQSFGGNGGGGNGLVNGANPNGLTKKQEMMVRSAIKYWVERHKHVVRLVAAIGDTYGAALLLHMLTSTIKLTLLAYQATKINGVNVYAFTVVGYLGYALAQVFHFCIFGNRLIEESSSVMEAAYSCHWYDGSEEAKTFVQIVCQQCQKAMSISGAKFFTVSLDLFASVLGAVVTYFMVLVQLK
Experiment: EIS sensor, Or22a/Orco liposomes on gold electrode
Assay type: biochemical
Experimental: Prior to their use, liposomes were defrosted on ice and then destabilized by incubating with 0.2% CHAPS for 15 min at room temperature. Then 200 μg of purified odorant receptor^28 was added to 1 mg of liposomes and rotated at 10 rpm for 1 h at room temperature. Excess detergent was removed by four additions of 25 mg of Bio-Beads SM-2 (Bio-Rad, USA) and incubation at 4° C. for 30 min, 2 h, overnight and a further 2 h respectively. The Bio-Beads were removed after each incubation period. The OrX or OrX/Orco integrated liposomes were pelleted by centrifugation at 100,000 g for 1 h, and were resuspended in 500 μL of rehydration buffer. Integration of OrXs and Orco into liposomes was assessed by density gradient ultracentrifugation (DGU) using Accudenz (Accurate Chemical & Scientific Corporation, USA). The integrated liposomes were brought to 40% Accudenz by the addition of an equal volume of 80% Accudenz solution, placed at the bottom of an ultra-centrifugation tube, and overlaid with 30% Accudenz solution, and DGU buffer (25 mM HEPES pH 7.5, 100 mM NaCl, 10% glycerol). The sample was then centrifuged at 100,000 g for 4 h at 4° C. Liposomes will float to the top of the gradient after Accudenz DGU due to their low density.
2 mM MHA was prepared by dissolving 1.36 μl of MHA in 5 ml ethanol (AR grade). The cleaned electrodes were immersed into MHA solution and incubated overnight. The next day, all the electrodes were washed with ethanol and deionised water thoroughly in order to remove the unreacted acid. A 2:1 mol:mol ratio of EDC:NHS (100 mM EDC, 50 mM NHS) was prepared in 2 ml PBS (pH=6.5) solution. Then, the electrodes were covered in 100 μl of this solution at 28° C. for an hour to activate the carboxylic (COOH) groups of the MHA.
PBS solution was prepared by immersing one tablet of PBS in 200 ml of milli-Q water (according to manufacturers instructions) and filtered using 0.2-μm syringe filter. The pH of the prepared buffer solution was measured with a pH meter. […]

`CCCCCC(=O)OC` [methyl hexanoate] was tested, and the limit of detection (EIS dose response, ligand 1 aM to 100 μM) was 0.1 fM, the Sensitivity limit (Table 1, * estimated visually from dose response graph) was ~10^−16 M* and the “Detection Range” value (Table 3) was 10^−16-10^−5 M.
